Laboratory results taken from ChEMBL document CHEMBL1201862, “PubChem BioAssay data set” (2004).
Where “and” joins values, the source holds several entries; their conditions need not be identical. Equal values may be shown once.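 All cell lines were grown in 96-well plates and treated with compound for 48 hours. GI50: concentration for 50% inhibition of growth.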 Calls of active or inactive are those of the source. Cut-off read from the data, not from the text of the source: active = GI50 up to about 1.1 µM and inactive = higher.

Key:
Test in all cases: NCI anticancer screen, dose series, 48 h
HT-29 = system: HT-29
OVCAR-8 = system: OVCAR-8
HCT-15 = system: HCT-15
SF-295 = system: SF-295
XF498 = system: XF498
IGROV-1 = system: IGROV-1
UACC-257 = system: UACC-257
TK-10 = system: TK-10
NCI-H226 = system: NCI-H226
LOX IMVI = system: LOX IMVI
COLO 205 = system: COLO 205
K562 = system: K562
DMS-273 = system: DMS-273
LXFL 529 = system: LXFL 529
SF-539 = system: SF-539
HOP-92 = system: HOP-92
RXF 393 = system: RXF 393
SNB-19 = system: SNB-19
CAKI-1 = system: CAKI-1
HL-60 = system: HL-60
RXF 631 = system: RXF 631
SK-MEL-2 = system: SK-MEL-2
DMS-114 = system: DMS-114
SN12C = system: SN12C
SF-268 = system: SF-268
SK-MEL-28 = system: SK-MEL-28
OVCAR-4 = system: OVCAR-4
ACHN = system: ACHN
U-251 = system: U-251
HCC 2998 = system: HCC 2998
NCI-H460 = system: NCI-H460
M14 = system: M14
RPMI-8226 = system: RPMI-8226
CCRF-CEM = system: CCRF-CEM
SW-620 = system: SW-620
EKVX = system: EKVX
SNB-75 = system: SNB-75
SR = system: SR
NCI-H23 = system: NCI-H23
OVCAR-5 = system: OVCAR-5
A498 = system: A498
Malme-3M = system: Malme-3M
HOP-18 = system: HOP-18
MOLT-4 = system: MOLT-4
SNB-78 = system: SNB-78
KM12 = system: KM12
A549 = system: A549
HCT-116 = system: HCT-116
KM-20L2 = system: KM-20L2
BT-549 = system: BT-549
MCF7 = system: MCF7
HOP-62 = system: HOP-62
MDA-N = system: MDA-N
DU-145 = system: DU-145
MDA-MB-435 = system: MDA-MB-435
Hs-578T = system: Hs-578T
UACC-62 = system: UACC-62
DLD-1 = system: DLD-1
MDA-MB-231 = system: MDA-MB-231
SK-OV-3 = system: SK-OV-3
PC-3 = system: PC-3
T47D = system: T47D
OVCAR-3 = system: OVCAR-3
SK-MEL-5 = system: SK-MEL-5
M19-MEL = system: M19-MEL
NCI-H522 = system: NCI-H522
786-0 = system: 786-0
UO-31 = system: UO-31

For `O=C(Nc1ccc2[nH]c3c(-c4ccccc4)nccc3c2c1)c1ccccc1[N+](=O)[O-]`, the GI50 (HT-29) was 1.85 µM (inactive), the GI50 (OVCAR-8) was 8.11 µM (inactive) and the GI50 (HCT-15) was 1.53 µM. For the same compound, the GI50 (SF-295) was 1.64 µM (inactive), the GI50 (XF498) was 3.59 µM (inactive) and the GI50 (IGROV-1) was 5.4 µM (inactive). For the same compound, the GI50 (UACC-257) was 4.11 µM (inactive), the GI50 (TK-10) was 4.18 µM (inactive) and the GI50 (NCI-H226) was 2.3 µM (inactive). The GI50 (LOX IMVI) was 2.92 µM (inactive), the GI50 (COLO 205) was 3.45 µM (inactive) and the GI50 (K562) was 4.06 µM (inactive). For the same compound, the GI50 (DMS-273) was 1.76 µM (inactive), the GI50 (LXFL 529) was 6.52 µM (inactive) and the GI50 (SF-539) was 1.37 µM (inactive). For the same compound, the GI50 (HOP-92) was 3.56 µM (inactive), the GI50 (RXF 393) was 1.83 µM (inactive) and the GI50 (SNB-19) was 5.58 µM (inactive). The GI50 (CAKI-1) was 5.74 µM (inactive), the GI50 (HL-60) was 3.48 µM (inactive) and the GI50 (RXF 631) was 3.81 µM (inactive). The GI50 (SK-MEL-2) was 4.09 µM (inactive), the GI50 (DMS-114) was 3.74 µM (inactive) and the GI50 (SN12C) was 64.6 µM (inactive). The GI50 (SF-268) was 3.52 µM (inactive), the GI50 (SK-MEL-28) was 4.95 µM (inactive) and the GI50 (OVCAR-4) was 36.9 µM (inactive). For the same compound, the GI50 (ACHN) was 3.94 µM (inactive), the GI50 (U-251) was 2.96 µM (inactive) and the GI50 (HCC 2998) was 3.58 µM (inactive). The GI50 (NCI-H460) was 3.45 µM (inactive), the GI50 (M14) was 2.99 µM (inactive) and the GI50 (RPMI-8226) was 1.61 µM (inactive). For the same compound, the GI50 (CCRF-CEM) was 5.93 µM (inactive), the GI50 (SW-620) was 5.06 µM (inactive) and the GI50 (EKVX) was 3.22 µM (inactive). The GI50 (SNB-75) was 2.47 µM (inactive), the GI50 (SR) was 1.85 µM (inactive) and the GI50 (NCI-H23) was 4.37 µM (inactive). For the same compound, the GI50 (OVCAR-5) was 2.17 µM (inactive), the GI50 (A498) was 3.24 µM (inactive) and the GI50 (Malme-3M) was 1.82 µM (inactive). For the same compound, the GI50 (HOP-18) was > 100 µM (inactive), the GI50 (MOLT-4) was 2.22 µM (inactive) and the GI50 (SNB-78) was 5.47 µM (inactive). The GI50 (KM12) was 3.97 µM (inactive), the GI50 (A549) was 4.88 µM (inactive) and the GI50 (HCT-116) was 5.71 µM (inactive). For the same compound, the GI50 (KM-20L2) was 1.74 µM (inactive).
`C/C=C(\CCC1NCCc2c1[nH]c1ccccc21)[Si](C)(C)C` (stereo unspecified) was tested, and the GI50 (BT-549) was 10.8 µM (inactive), the GI50 (OVCAR-8) was 4.16 µM (inactive) and 7.82 µM (inactive) and the GI50 (MCF7) was 2.02 µM (inactive). The GI50 (HCT-15) was 18.7 µM and 2.25 µM, the GI50 (HOP-62) was 11.9 µM (inactive) and 14.5 µM (inactive) and the GI50 (MDA-N) was 2.09 µM (inactive). The GI50 (DU-145) was 12.6 µM (inactive), the GI50 (XF498) was 1.41 µM (inactive) and 1.8 µM (inactive) and the GI50 (MDA-MB-435) was 3.37 µM (inactive). The GI50 (Hs-578T) was 2.05 µM (inactive), the GI50 (NCI-H226) was 10.9 µM (inactive) and 7.76 µM (inactive) and the GI50 (LOX IMVI) was 2.28 µM (inactive) and 20.3 µM (inactive). The GI50 (COLO 205) was 14.3 µM (inactive) and 1.8 µM (inactive), the GI50 (K562) was 3.57 µM (inactive) and 6.67 µM (inactive) and the GI50 (LXFL 529) was 1.78 µM (inactive) and 5.01 µM (inactive). The GI50 (RXF 631) was 5.05 µM (inactive) and 7.28 µM (inactive), the GI50 (UACC-62) was 5.86 µM (inactive) and 5.27 µM (inactive) and the GI50 (SN12C) was 5.89 µM (inactive) and 3.32 µM (inactive). For the same compound, the GI50 (DLD-1) was 3.49 µM (inactive) and 6.24 µM (inactive), the GI50 (SF-268) was 11.2 µM (inactive) and 5.96 µM (inactive) and the GI50 (OVCAR-4) was 3.03 µM (inactive) and 5.81 µM (inactive). For the same compound, the GI50 (EKVX) was 14.7 µM (inactive) and 8.41 µM (inactive), the GI50 (MDA-MB-231) was 2.14 µM (inactive) and the GI50 (SK-OV-3) was 13.4 µM (inactive) and 10.1 µM (inactive). The GI50 (SNB-75) was 5.97 µM (inactive) and 6.5 µM (inactive), the GI50 (PC-3) was 5.01 µM (inactive) and the GI50 (A498) was 2.67 µM (inactive) and 6.5 µM (inactive). For the same compound, the GI50 (Malme-3M) was 1.77 µM (inactive) and 1.21 µM (inactive), the GI50 (T47D) was 2.22 µM (inactive) and the GI50 (HOP-18) was 6.79 µM (inactive) and 20.1 µM (inactive). For the same compound, the GI50 (MOLT-4) was 2.74 µM (inactive) and 4.35 µM (inactive), the GI50 (SNB-78) was 4.9 µM (inactive) and 9.31 µM (inactive) and the GI50 (A549) was 10.1 µM (inactive) and 6.59 µM (inactive).
For `C=C=C(CC)C(C(=O)OC)N(CC)CC` (stereo unspecified), the GI50 (HT-29) was > 100 µM (inactive), the GI50 (OVCAR-8) was > 100 µM (inactive) and the GI50 (HOP-62) was > 100 µM (inactive). For the same compound, the GI50 (OVCAR-3) was > 100 µM (inactive), the GI50 (SF-295) was > 100 µM (inactive) and the GI50 (XF498) was > 100 µM (inactive). The GI50 (SK-MEL-5) was > 100 µM (inactive), the GI50 (M19-MEL) was > 100 µM (inactive) and the GI50 (IGROV-1) was > 100 µM (inactive). The GI50 (UACC-257) was > 100 µM (inactive), the GI50 (TK-10) was > 100 µM (inactive) and the GI50 (NCI-H226) was > 100 µM (inactive). The GI50 (LOX IMVI) was > 100 µM (inactive), the GI50 (COLO 205) was > 100 µM (inactive) and the GI50 (K562) was > 100 µM (inactive). For the same compound, the GI50 (LXFL 529) was > 100 µM (inactive), the GI50 (NCI-H522) was > 100 µM (inactive) and the GI50 (SF-539) was > 100 µM (inactive). The GI50 (HOP-92) was > 100 µM (inactive), the GI50 (RXF 393) was > 100 µM (inactive) and the GI50 (SNB-19) was > 100 µM (inactive). The GI50 (CAKI-1) was > 100 µM (inactive), the GI50 (HL-60) was > 100 µM (inactive) and the GI50 (RXF 631) was > 100 µM (inactive). The GI50 (DMS-114) was > 100 µM (inactive), the GI50 (UACC-62) was > 100 µM (inactive) and the GI50 (SN12C) was > 100 µM (inactive). The GI50 (DLD-1) was > 100 µM (inactive), the GI50 (SF-268) was > 100 µM (inactive) and the GI50 (786-0) was > 100 µM (inactive). The GI50 (SK-MEL-28) was > 100 µM (inactive), the GI50 (OVCAR-4) was > 100 µM (inactive) and the GI50 (ACHN) was > 100 µM (inactive). The GI50 (U-251) was > 100 µM (inactive), the GI50 (UO-31) was > 100 µM (inactive) and the GI50 (NCI-H460) was > 100 µM (inactive). For the same compound, the GI50 (M14) was > 100 µM (inactive), the GI50 (RPMI-8226) was > 100 µM (inactive) and the GI50 (CCRF-CEM) was > 100 µM (inactive). For the same compound, the GI50 (SW-620) was > 100 µM (inactive), the GI50 (EKVX) was > 100 µM (inactive) and the GI50 (SK-OV-3) was > 100 µM (inactive). For the same compound, the GI50 (SNB-75) was > 100 µM (inactive), the GI50 (SR) was > 100 µM (inactive) and the GI50 (NCI-H23) was > 100 µM (inactive). For the same compound, the GI50 (A498) was > 100 µM (inactive), the GI50 (Malme-3M) was > 100 µM (inactive) and the GI50 (HOP-18) was > 100 µM (inactive). The GI50 (MOLT-4) was > 100 µM (inactive), the GI50 (SNB-78) was > 100 µM (inactive) and the GI50 (KM12) was > 100 µM (inactive). The GI50 (A549) was > 100 µM (inactive), the GI50 (HCT-116) was > 100 µM (inactive) and the GI50 (KM-20L2) was > 100 µM (inactive).
